Measurements as given in PubChem BioAssay AID248 (DTP/NCI, 2004).
Toxic doses and inconclusive results are not listed. No stated cut-off is given here; in the data, active means T/C of 150% or more; inactive means T/C below 125%.

Tested on: L1210 leukemia ip in BDF1 mice, survival T/C
Assay: NCI In Vivo Anticancer Drug Screen. Data for tumor model L1210 Leukemia (intraperitoneal) in B6D2F1 (BDF1) mice
Conditions: endpoint: mean survival time, higher = longer survival
Summary of the method: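 Ratio derived from survival: compound-dosed mice over vehicle-dosed mice, all bearing a transplantable tumor.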

[1] = dose: 100.0 mg/kg/injection, schedule: Q01DX001 (ip), vehicle: other
[2] = dose: 100.0 mg/kg/injection, schedule: Q01DX009 (ip), vehicle: saline with Tween-80
[3] = dose: 200.0 mg/kg/injection, schedule: Q01DX001 (ip), vehicle: other
[4] = dose: 200.0 mg/kg/injection, schedule: Q01DX009 (ip), vehicle: saline with Tween-80
[5] = dose: 400.0 mg/kg/injection, schedule: Q01DX001 (ip), vehicle: other
[6] = dose: 400.0 mg/kg/injection, schedule: Q01DX009 (ip), vehicle: saline with Tween-80
[7] = dose: 100.0 mg/kg/injection, schedule: Q01DX001 (ip), vehicle: saline
[8] = dose: 200.0 mg/kg/injection, schedule: Q01DX001 (ip), vehicle: saline
[9] = dose: 400.0 mg/kg/injection, schedule: Q01DX001 (ip), vehicle: saline

Measured: T/C

Cc1nnc(N)s1
inactive: [1] 102 % of control | [2] 95 % of control | dose: 100.0 mg/kg/injection, schedule: Q04DX003 (ip), vehicle: other 104 % of control | [3] 102 % of control | [4] 92 % of control | dose: 200.0 mg/kg/injection, schedule: Q04DX003 (ip), vehicle: other 95 % of control | [5] 100 % of control | [6] 93 % of control | dose: 400.0 mg/kg/injection, schedule: Q04DX003 (ip), vehicle: other 98 % of control

O=C(O)O.[Co].[NH-]CCN(CC[NH-])CC[NH-]
inactive: dose: 50.0 mg/kg/injection, schedule: Q01DX001 (ip), vehicle: saline 105 % of control | [7] 94 % of control | [8] 111 % of control | [9] 100 % of control

Oc1ccccc1/C=N/c1ccccn1
inactive: dose: 25.0 mg/kg/injection, schedule: Q01DX009 (ip), vehicle: Klucel (hydroxypropylcellulose) (HPC) 106 % of control | dose: 50.0 mg/kg/injection, schedule: Q01DX009 (ip), vehicle: Klucel (hydroxypropylcellulose) (HPC) 97 % of control

Nc1cc2c(c(Cl)c1Br)-c1ccccc1C2=O
inactive: [7] 96 % of control | [8] 90 % of control | [9] 94 % of control

Nc1cc(Cl)c(O)c(Cl)c1
inactive: dose: 12.5 mg/kg/injection, schedule: Q01DX015 (ip), vehicle: saline 97 % of control | dose: 25.0 mg/kg/injection, schedule: Q01DX001 (ip), vehicle: saline with Tween-80 93 % of control | dose: 25.0 mg/kg/injection, schedule: Q01DX015 (ip), vehicle: saline 100 % of control | dose: 50.0 mg/kg/injection, schedule: Q01DX001 (ip), vehicle: saline with Tween-80 92 % of control | dose: 50.0 mg/kg/injection, schedule: Q01DX015 (ip), vehicle: saline 97 % of control | dose: 100.0 mg/kg/injection, schedule: Q01DX001 (ip), vehicle: carboxymethylcellulose (CMC) 93 % of control | [7] 93 % of control | dose: 100.0 mg/kg/injection, schedule: Q01DX015 (ip), vehicle: saline 91 % of control

COc1ccc(OC)c2c1CCCC21OCCO1
inactive: dose: 50.0 mg/kg/injection, schedule: Q01DX009 (ip), vehicle: saline with Tween-80 105 % of control | dose: 100.0 mg/kg/injection, schedule: Q01DX001 (ip), vehicle: saline with Tween-80 95 % of control | [2] 102 % of control | dose: 200.0 mg/kg/injection, schedule: Q01DX001 (ip), vehicle: saline with Tween-80 96 % of control | [4] 100 % of control

NNC(=O)CNc1ccc(F)c(C(F)(F)F)c1
inactive: dose: 100.0 mg/kg/injection, schedule: Q04DX002 (ip), vehicle: Klucel (hydroxypropylcellulose) (HPC) 107 % of control | dose: 200.0 mg/kg/injection, schedule: Q04DX002 (ip), vehicle: Klucel (hydroxypropylcellulose) (HPC) 118 % of control

Cc1cncc(CC(O)(C(F)(F)F)C(F)(F)F)n1
inactive: [7] 102 % of control | [2] 97 % of control | [8] 96 % of control | [4] 103 % of control | [9] 104 % of control | [6] 101 % of control

CCCn1c(=O)cc(C)c2ccccc21
inactive: [1] 105 % of control | [3] 90 % of control | [5] 91 % of control

CCC1(CC)C(=O)NC(=NCCCC(N)C(=O)O)NC1=O (centres undefined)
inactive: dose: 75.0 mg/kg/injection, schedule: Q01DX001 (ip), vehicle: carboxymethylcellulose (CMC) 106 % of control | dose: 150.0 mg/kg/injection, schedule: Q01DX001 (ip), vehicle: carboxymethylcellulose (CMC) 109 % of control

NC(=O)c1ccc[n+](Cc2ccccc2)c1
inactive: dose: 37.5 mg/kg/injection, schedule: Q04DX003 (ip), vehicle: saline 97 % of control | dose: 75.0 mg/kg/injection, schedule: Q04DX003 (ip), vehicle: saline 94 % of control | dose: 100.0 mg/kg/injection, schedule: Q01DX009 (ip), vehicle: saline 100 % of control | dose: 150.0 mg/kg/injection, schedule: Q04DX003 (ip), vehicle: saline 95 % of control | dose: 200.0 mg/kg/injection, schedule: Q01DX009 (ip), vehicle: saline 107 % of control
